The source of these data is patent US20030162972A1, “Pyridyl alkane acid amides as cytostatics and immunosupressives” (Klinge Pharma GmbH, priority 1996, published 2003).

SMILES strings stand for the structures.

One series relates to HepG2 cells. Nature of the series: Growth inhibition of HepG2 cells, six days of substance incubation, sulforhodamin-B protein determination. The series is classed as cell-based. The following applies: Homo sapiens, 144 h. As to the method: (§1) HepG2 cells plated at a density of 20,000 cells/ml in 12-well plastic dishes. Cultivation occured in Richters IMEM-ZO nutrient medium with 5% fetal calf serum (FCS) in a tissue culture incubator with a gas mixture of 5% CO2 and 95% air at a temperature of 37° C. One day after planting, the culture medium was aspirated from the cells and replaced by fresh medium which contained the respective concentrations of the test substances. For the individual concentrations and the controls without test substances, three-fold batches were done for each. Three days after the beginning of treatment, the medium was again renewed with the test compounds. After six days of substance incubation, the test was ended and the protein amount in the individual wells was determined with the sulforhodamin-B-method (according to P. Skehan et al: New Colorimetric Cytotoxicity Assay for Anticancer-Drug Screening. J. Natl. Cancer Inst. 82:1107-1112, 1990). The IC50-values (defined as that concentration in which the cell growth was inhibited by 50%) was taken from the dose-response curves and given as a comparative measurement for the activity of the test compounds.

Series [1] concerns various human tumor cells. The experiment in a line: In vitro activity of compound Nr. 54 on various human tumor cells. The class given is cell-based. As to the method:
as §1
The compounds of formula (I) and their salts permit a therapeutic use in malignant illnesses of humans and animals through their excellent inhibition of the growth of tumor cells. The anti-neoplastic activity of the described substances can be used for prophylactic, adjunct, palliative, and curative treatment of solid tumors, leukemic illnesses and lymphomas as well as for decreasing or preventing metastasis formation in humans and animals. The therapeutic use is possible in the following illnesses for example: gynecological tumors, such as of the uterus or the vagina, ovarian carcinomas, testicle tumors, prostate carcinomas, skin cancer, kidney cancer, bladder tumors, esophagus carcinomas, stomach cancer, rectal carcinomas, pancreas carcinomas, thyroid cancer, adrenal tumors, leukemia and lymphomas, such as Hodgkin's disease, tumor illnesses of the CNS, soft-tissue sarcomas, bone sarcomas, benign and malignant mesotheliomas, but especially intestine cancer, liver cancer, breast cancer, bronchial and lung carcinomas, melanomas, acute and chronic leukemias. Thereby, benign papillomatosis tumors are also considered for therapy. The broad activity of the new compounds was tested in vitro on various human tumor cells Thereby, the following IC50 values were obtained for compound Nr.

Series [2] has as its system freshly isolated lymphocytes. Nature of the series: Immunosuppressing activity: vitality of freshly isolated spleen lymphocytes after 2 days, flow-through cytometry (propidium iodide / 3,3'-dihexyloxacarbocyanin iodide). The class given is cell-based. Particulars: Lymphocyte, 48 h; Swiss mouse spleen lymphocytes, vital cells after 2 days, flow-through cytometer. The source says:
Many anti-tumor agents have not only a cytotoxic effect on tumor cells, but also on the blood cell system. This leads to a weakening of the immune defence, which can, in turn, be specifically employed to suppress the rejection reaction after an organ transplantation for example. Therefore, a use of the main compounds, optionally in combination with other compounds effective for these indications is suitable in diseases such as psoriasis or autoimmune diseases. In order to test the possibility for a therapeutic use in illnesses of this type, the substance activity was tested on freshly isolated lymphocytes as follows: […]
The cells were plated at a density of ca. 500,000 cells/well/ml in a 12-well plate, 1 ml doubly concentrated test substance solution was pipetted per well and this was subsequently incubated in a tissue culture incubator at 37° C. and 5% CO2. […] Subsequently, 10,000 cells per each sample were measured on a flow-through cytometer and the percentage amount of vital cells in the population was determined. By means of the dose-response curves, IC50-values were calculated which were also employed in the following Tables for the characterization of the individual substances: […]

Take `O=C(CCc1cccnc1)NCCCCC1CCN(C(c2ccccc2)c2ccccc2)CC1` [Substance 54, N-[4-(1-diphenylmethyl-piperidin-4-yl)-butyl]-3-(pyridin-3-yl)-propionamide]: the IC50 – broadly, the concentration that inhibits the measured activity by half – with HepG2 cells turned out to be 20 nM; in series [1] (MCF7, cell line MCF-7, ER-positive mammacarcinoma), 80 nM; in series [1] (cell line HT-29, colon carcenoma), 80 nM; in series [1] (cell line HepG2, hepatocellular carcinoma), 20 nM; in series [1] (cell line Namalwa, Burkitt's lymphoma), 50 nM; in series [1] (cell line Saos-2, osteosarcoma) it was 20 nM. Moreover, the IC50 worked out at 30 nM in series [1] (cell line THP-1, monocytic leukemia) and 3 nM in series [2].
For `CCN(CCCCC1CCN(C(c2ccccc2)c2ccccc2)CC1)C(=O)CCc1cccnc1` [Substance 68, N-[4-(1-diphenylmethyl-piperidin-4-yl)-butyl]-N-ethyl-3-(pyridin-3-yl)-propionamide], the melting point (in general, the temperature, or range, at which the solid turns liquid) was 72 to 74 °C.
`O=C(COc1cccnc1)NCCCCC1CCN(C(c2ccccc2)c2ccccc2)CC1` [Substance 84, N-[4-(1-diphenylmethyl-piperidin-4-yl)-butyl]-2-(pyridin-3-yloxy)-acetamide]: the melting point is 103 to 105 °C. Moreover, in the series with HepG2 cells, the IC50 is 80 nM.
The corresponding values for `O=C(CCc1cccnc1)NCCCCCC1CCN(C(c2ccccc2)c2ccccc2)CC1` [Substance 101, N-[5-(1-diphenylmethyl-piperidin-4-yl)-pentyl]-3-(pyridin-3-yl)-propionamide] are 112 to 114 °C and 30 nM.
Take `O=C(CCc1cccnc1)NCCCCNC(=O)C1CCCN(C(c2ccccc2)c2ccccc2)C1` (stereo not drawn) [Substance 106, N-[4-(1-diphenylmethyl-piperidin-3-yl-carbonylamino)-butyl]-3-(pyridin-3-yl)-propionamide]: the melting point was 159 to 161 °C.
The same measure, in the same setting: next, `O=C(CCc1cccnc1)NCCCCC1CCN(C(=O)c2ccccc2)CC1` [Substance 162, N-[4-(1-benzoylpiperidin-4-yl)-butyl]-3-(pyridin-3-yl)-propionamide]: 72 to 74 °C.
